# Calls of active or inactive are those of the source. No cut-off for these calls is given here.
# Tests used:
# Mus musculus [1] = experiment: Increase in human F9 nonsense R338X mutant antigen level per 100 ul of plasma in C57B/6J mouse model at 7 mg/kg, sc administered daily for 2 days after 2 hrs by ELISA; assay type: functional; settings: route subcutaneous
# Mus musculus [2] = experiment: Increase in human F9 nonsense R338X mutant antigen coagulant activity in C57B/6J mouse plasma at 7 mg/kg, sc administered daily for 2 days after 2 hrs; assay type: functional; settings: route subcutaneous
# Mus musculus [3] = experiment: Increase in human F9 nonsense R338X mutant antigen level per 100 ul of plasma in C57B/6J mouse model at 14 mg/kg, sc administered daily for 2 days after 2 hrs by ELISA; assay type: functional; settings: route subcutaneous
# Mus musculus [4] = experiment: Increase in human F9 nonsense R338X mutant antigen coagulant activity in C57B/6J mouse plasma at 14 mg/kg, sc administered daily for 2 days after 2 hrs; assay type: functional; settings: route subcutaneous
# Mus musculus [5] = experiment: Increase in human F9 nonsense R338X mutant antigen level per 100 ul of plasma in C57B/6J mouse model at 28 mg/kg, sc administered daily for 2 days after 2 hrs by ELISA; assay type: functional; settings: route subcutaneous
# Mus musculus [6] = experiment: Increase in human F9 nonsense R338X mutant antigen coagulant activity in C57B/6J mouse plasma at 28 mg/kg, sc administered daily for 2 days after 2 hrs; assay type: functional; settings: route subcutaneous
# Mus musculus [7] = experiment: Increase in human F9 nonsense R338X mutant antigen level per 100 ul of plasma in C57B/6J mouse model at 28 mg/kg, sc administered daily for 2 days after 9 hrs by ELISA; assay type: functional; settings: route subcutaneous
# Mus musculus [8] = experiment: Increase in human F9 nonsense R338X mutant antigen coagulant activity in C57B/6J mouse plasma at 28 mg/kg, sc administered daily for 2 days after 9 hrs; assay type: functional; settings: route subcutaneous
# Mus musculus [9] = experiment: Increase in human F9 nonsense R338X mutant antigen level per 100 ul of plasma in C57B/6J mouse model at 42 mg/kg, sc administered daily for 2 days after 9 hrs by ELISA; assay type: functional; settings: route subcutaneous
# Mus musculus [10] = experiment: Increase in human F9 nonsense R338X mutant antigen coagulant activity in C57B/6J mouse plasma at 42 mg/kg, sc administered daily for 2 days after 9 hrs; assay type: functional; settings: route subcutaneous
# Mus musculus [11] = experiment: Increase in human F9 nonsense R338X mutant antigen coagulant activity in C57B/6J mouse plasma at 28 mg/kg, sc administered daily for 7 days after 9 hrs by ELISA; assay type: functional; settings: route subcutaneous
# [12] = Half life in C57BL/6J hemophilia B mouse model at 28 mg/kg, sc for 2 days; assay type: ADME, organism-based; design: dose 28 mg/kg, route subcutaneous; settings: in vivo
# [13] = Elimination half life in C57BL/6J hemophilia B mouse model liver at 28 mg/kg, sc for 2 days; assay type: ADME, organism-based; design: dose 28 mg/kg, route subcutaneous
# [14] = Toxicity in C57BL/6J hemophilia B mouse model at 28 mg/kg, sc; assay type: organism-based; design: dose 28 mg/kg, route subcutaneous; settings: in vivo
# Mus musculus [15] = experiment: Increase in human F9 nonsense R338X mutant antigen coagulant activity in C57B/6J mouse plasma at 28 mg/kg, sc administered daily for 7 days after 3 hrs by ELISA; settings: route subcutaneous
# Mus musculus [16] = experiment: Increase in human F9 nonsense R338X mutant antigen coagulant activity in C57B/6J mouse plasma at 28 mg/kg, sc administered daily for 7 days after 9 hrs by ELISA
structure (smiles),measurement,setting,value
CN[C@@H]1[C@@H](O)[C@@H](O[C@@H]2[C@@H](O)[C@H](O[C@H]3O[C@H]([C@@H](C)O)[C@@H](O)[C@H](O)[C@H]3N)[C@@H](N)C[C@H]2N)OC[C@]1(C)O [GENETICIN],Activity,Mus musculus [1],2.28 ng
same,Activity,Mus musculus [2],4.55%
same,Activity,Mus musculus [3],5.79 ng
same,Activity,Mus musculus [4],6.18%
same,Activity,Mus musculus [5],8.75 ng
same,Activity,Mus musculus [6],6.94%
same,Activity,Mus musculus [7],27.28 ng
same,Activity,Mus musculus [8],8.03%
same,Activity,Mus musculus [9],13.57 ng
same,Activity,Mus musculus [10],4.98%
same,Activity,Mus musculus [11],43.9 ng
same,half-life,[12],0.25 h
same,half-life,[13],80 h
same,LD50,[14],1300 mg/kg
same,Activity,Mus musculus [15],22.8 ng
same,Activity,Mus musculus [16],Active

# Reference: ChEMBL document CHEMBL1156518, “A mouse model for nonsense mutation bypass therapy shows a dramatic multiday response to geneticin” (Proc Natl Acad Sci U S A, 2007)
